According to patent US10947558B2, “Compositions and methods for inducing resistance to soybean cyst nematode via RNAi” (priority 2015, dated 2021):

System: C. elegans (N2 wild type)
Experiment: RNA interference in C. elegans by soaking L2 worms in HgRPS23 dsRNA (vitality/lethality)
Type: in vivo
Details: 10 μM, positive control, after one day of soaking
Protocol: The effectiveness of HgRPS23 siRNA in silencing the worm's ribosomal protein gene was tested in C. elegans, following the previously published protocols (Alkharouf et al., 2007, Peng et al., 2016) with modifications. A T7 promoter sequence (5′-TAATACGACTCACTATAG-3′; SEQ ID NO: 3) was added to the 5′ ends of both the forward and reverse primer to amplify the 225 bp of HgRPS23 from pRD64 by PCR. The amplified PCR product was used to produce the double stranded (ds) in vitro transcript by the MEGAscript®T7 kit (Ambion/Invitrogen, Calsbad, Calif., USA).
The wt N2 strain of C. elegans was obtained from the CGC (Caenorhabditis Genetics Center) and maintained on NGM (Nematode Growth Medium) plates (60 mm petri dishes) at room temperature. The worms were grown and synchronized using protocols from the WormBase (www.wormbase.org). The L2 worms were soaked in 100 μl M9 buffer (22 mM KH2PO4, 4.7 mM NH4Cl, 43.6 mM Na2HPO4 and 2.1 mM NaCl) containing 50 mM octopamine (Sigma, St. Louis, Mo., USA) to increase pharyngeal pumping and 2 mg/ml HgRPS23 dsRNA. The negative control L2 worms were treated by soaking in M9 buffer containing 50 mM octopamine only. The positive control L2 worms were soaked in M9 buffer containing 50 mM octopamine and 10 μM cycloheximide (Sigma, St. Louis, Mo., USA) as a translation inhibitor. C. elegans worms were treated in the wells of a 96-well plate on a gentle shaker. […]

## C[C@@H]1C[C@@H]([C@H](O)CC2CC(=O)NC(=O)C2)C(=O)[C@@H](C)C1 [cycloheximide]
  vitality rate of N2 worms: approximately 20%
